Data reported in patent US12686673B2 (Blueprint Medicines Corporation, priority 2020, dated 2026).
Structures can show the parent of a compound that is named as a salt. Where two headings read alike, the source gives them in different places.

Legend:
Format in all cases: cell-based
[1] = tested on: A431 cells; assay: Cellular proliferation (Alamar Blue) assay, A431
Method: (§1) • 1. EGFR(D770_N771insSVD) expressing Ba/F3 stable cell line • 2. EGFR (A767_dupASV) expressing Ba/F3 stable cell line • 3. A431 cells • 4. EGFR (H773insNPH) expressing Ba/F3 stable cell line • 5. HER2 (A775_G776insYVMA) expressing Ba/F3 stable cell line Assay Procedure: • 1. Seed cells at 5000 for A431 and 15,000 cells for Ba/F3 in 100 μL/well in complete media (for A431: DMEM with […] and for Ba/F3 cells: RPMI with 10% FBS) in 96-well tissue culture plate. Leave outer wells without cells for background measurements. Incubate at 37 degree Celsius in […] humidified incubator for 16-18 hours. • 2. Add 0.025 ml of 5× concentration compound dilution or DMSO control. Final compound concentration range is 10-0.0005 μM prepared in 3-fold serial dilutions. Incubate for 72 hr at 37 degree Celsius in […] humidified incubator. • 3. Add 0.0125 ml Alamar Blue™ reagent to each well with multi-channel pipette and tap gently on each side of the plate to mix. Incubate for 3 hours at 37 degree Celsius in 5% CO2 humidified incubator. • 4. […] Data analysis was performed using XLfit 5.5.0.5.

[2] = molecular target: EGFR (A767_dupASV) expressing Ba/F3 stable cell line (Homo sapiens, UniProt P00533, DUP767-769, cells depend on it); assay: Cellular proliferation (Alamar Blue) assay, EGFR A767_dupASV Ba/F3; settings: 72 hr, read-out: A767 IC50
Method: as §1

[3] = molecular target: EGFR(D770_N771insSVD) expressing Ba/F3 stable cell line (Homo sapiens, UniProt P00533, DUP768-770, cells depend on it); assay: Cellular proliferation (Alamar Blue) assay, EGFR D770_N771insSVD Ba/F3; settings: 72 hr, read-out: D770 IC50
Method: as §1

[4] = Homo sapiens, A-431; A431 cells, 72 hr, Alamar Blue; read-out: A431 IC50
[5] = Homo sapiens, A-431; A431 cells, Alamar Blue, 72 hr; read-out: A431 IC50

EGFR(D770_N771insSVD) expressing Ba/F3 stable cell line, sequence (P00533 with tags, fused parts or gaps DUP768-770): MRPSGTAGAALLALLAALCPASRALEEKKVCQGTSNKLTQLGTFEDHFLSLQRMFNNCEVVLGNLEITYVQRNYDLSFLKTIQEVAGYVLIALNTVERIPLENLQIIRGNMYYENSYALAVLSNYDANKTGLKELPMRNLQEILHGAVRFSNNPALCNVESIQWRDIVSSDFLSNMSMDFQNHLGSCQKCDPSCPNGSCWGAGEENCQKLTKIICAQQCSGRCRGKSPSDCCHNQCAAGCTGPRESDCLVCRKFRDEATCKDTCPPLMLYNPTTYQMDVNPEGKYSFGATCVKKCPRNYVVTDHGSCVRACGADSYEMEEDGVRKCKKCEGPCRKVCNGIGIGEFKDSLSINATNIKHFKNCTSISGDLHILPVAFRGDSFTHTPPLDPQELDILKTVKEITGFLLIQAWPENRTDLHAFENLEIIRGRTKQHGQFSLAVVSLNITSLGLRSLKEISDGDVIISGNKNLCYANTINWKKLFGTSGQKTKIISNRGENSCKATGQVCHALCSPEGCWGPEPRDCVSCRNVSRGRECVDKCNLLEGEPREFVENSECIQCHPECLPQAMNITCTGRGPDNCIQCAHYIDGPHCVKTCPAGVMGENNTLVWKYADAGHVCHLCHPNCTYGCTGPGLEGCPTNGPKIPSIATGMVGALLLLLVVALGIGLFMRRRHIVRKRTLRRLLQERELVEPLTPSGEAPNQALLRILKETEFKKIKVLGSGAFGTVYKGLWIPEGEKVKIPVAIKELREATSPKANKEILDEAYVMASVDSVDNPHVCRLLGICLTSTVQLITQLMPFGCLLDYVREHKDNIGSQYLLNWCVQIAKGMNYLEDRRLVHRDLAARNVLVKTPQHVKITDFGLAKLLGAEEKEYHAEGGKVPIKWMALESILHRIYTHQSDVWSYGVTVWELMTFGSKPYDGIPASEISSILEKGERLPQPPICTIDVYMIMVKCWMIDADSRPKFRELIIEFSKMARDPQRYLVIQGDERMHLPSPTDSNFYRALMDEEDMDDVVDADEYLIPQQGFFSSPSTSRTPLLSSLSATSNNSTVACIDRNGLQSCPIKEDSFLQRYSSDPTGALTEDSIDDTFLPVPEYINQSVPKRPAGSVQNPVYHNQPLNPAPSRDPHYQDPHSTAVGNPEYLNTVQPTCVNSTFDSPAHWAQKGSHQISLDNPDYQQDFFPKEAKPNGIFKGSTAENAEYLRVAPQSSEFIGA
EGFR (A767_dupASV) expressing Ba/F3 stable cell line, sequence (P00533 with tags, fused parts or gaps DUP767-769): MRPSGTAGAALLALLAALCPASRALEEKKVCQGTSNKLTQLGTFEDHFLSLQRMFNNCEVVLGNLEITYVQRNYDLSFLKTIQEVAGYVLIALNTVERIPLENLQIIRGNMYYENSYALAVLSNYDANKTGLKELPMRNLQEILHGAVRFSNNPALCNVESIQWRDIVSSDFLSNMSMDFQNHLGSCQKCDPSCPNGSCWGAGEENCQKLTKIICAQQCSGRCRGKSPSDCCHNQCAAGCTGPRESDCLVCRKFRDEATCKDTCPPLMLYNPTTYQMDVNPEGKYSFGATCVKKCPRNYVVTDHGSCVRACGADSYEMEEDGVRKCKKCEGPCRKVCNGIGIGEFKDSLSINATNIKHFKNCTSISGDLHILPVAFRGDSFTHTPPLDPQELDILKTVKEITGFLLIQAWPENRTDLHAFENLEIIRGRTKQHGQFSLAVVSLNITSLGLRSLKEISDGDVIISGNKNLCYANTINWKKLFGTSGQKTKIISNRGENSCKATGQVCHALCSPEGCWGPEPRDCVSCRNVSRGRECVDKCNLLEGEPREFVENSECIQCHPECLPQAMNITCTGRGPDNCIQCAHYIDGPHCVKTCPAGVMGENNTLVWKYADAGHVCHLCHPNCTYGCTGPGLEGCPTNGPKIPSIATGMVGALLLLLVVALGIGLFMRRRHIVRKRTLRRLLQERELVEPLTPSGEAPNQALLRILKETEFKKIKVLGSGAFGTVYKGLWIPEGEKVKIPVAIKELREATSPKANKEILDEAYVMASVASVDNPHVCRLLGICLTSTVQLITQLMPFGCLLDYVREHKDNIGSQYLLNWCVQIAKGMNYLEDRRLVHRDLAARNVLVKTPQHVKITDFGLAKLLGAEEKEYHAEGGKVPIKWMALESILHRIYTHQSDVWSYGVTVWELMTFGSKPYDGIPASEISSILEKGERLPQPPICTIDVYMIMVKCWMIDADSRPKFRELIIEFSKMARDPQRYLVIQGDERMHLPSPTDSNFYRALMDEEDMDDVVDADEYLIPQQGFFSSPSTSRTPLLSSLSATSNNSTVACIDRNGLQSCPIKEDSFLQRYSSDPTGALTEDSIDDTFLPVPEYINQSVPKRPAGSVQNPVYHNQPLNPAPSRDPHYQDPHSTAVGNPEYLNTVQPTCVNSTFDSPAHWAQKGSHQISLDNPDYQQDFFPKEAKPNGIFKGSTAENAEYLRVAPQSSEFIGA

SMILES	IC50 [1, 4] [nM]	GI50 [2] [nM]	GI50 [3] [nM]	IC50 [1, 5] [nM]
C=CC(=O)Nc1cc(Nc2nc(Nc3cnn(C)c3)ncc2-c2ccc(C(F)(F)F)cc2)ccc1N(C)CCN(C)C [Compound 199, N-(2-{[2-(dimethylamino)ethyl](methyl)amino}-5-({2-[(1-methyl-1H-pyrazol-4-yl)amino]-5-[4-(trifluoromethyl)phenyl]pyrimidin-4-yl}amino)phenyl)prop-2-enamide]	716	704	239	
C=CC(=O)Nc1ccc(F)c(Nc2nc(NC3CC3)ncc2-c2ccc(C(F)(F)F)cc2)c1 [Compound 180, N-(3-{[2-(cyclopropylamino)-5-[4-(trifluoromethyl)phenyl]pyrimidin-4-yl]amino}-4-fluorophenyl)prop-2-enamide]		> 10000	> 10000	> 10000
C=CC(=O)Nc1ccc(F)c(Nc2nc(Nc3cnn(C)c3)ncc2-c2ccc(N(C)C)nc2)c1 [Compound 107, N-(3-((5-(6-(dimethylamino)pyridin-3-yl)-2-((1-methyl-1H-pyrazol-4-yl)amino)pyrimidin-4-yl)amino)-4-fluorophenyl)acrylamide]		> 10000	> 10000	
C=CC(=O)Nc1ccc(F)c(Nc2nc(Nc3csc(Cl)c3)ncc2-c2ccc(C(F)(F)F)cc2)c1 [Compound 41, N-(3-((2-((5-chlorothiophen-3-yl)amino)-5-(4-(trifluoromethyl)phenyl)pyrimidin-4-yl)amino)-4-fluorophenyl)acrylamide trifluoroacetate]		> 10000	1660	7330
C=CC(=O)Nc1cccc(Oc2nc(Nc3ccccc3OC)ncc2-c2ccc(C(F)(F)F)cc2)c1 [Compound 193, N-[3-({2-[(2-methoxyphenyl)amino]-5-[4-(trifluoromethyl)phenyl]pyrimidin-4-yl}oxy)phenyl]prop-2-enamide]		> 10000	> 10000	8760
C=CC(=O)Nc1ccc(F)c(Nc2nc(Nc3ccc(F)cc3)ncc2-c2ccc(C(F)(F)F)cc2)c1 [Compound 122, N-(4-fluoro-3-((2-((4-fluorophenyl)amino)-5-(4-(trifluoromethyl)phenyl)pyrimidin-4-yl)amino)phenyl)acrylamide trifluoroacetate]		> 10000	1990	3690
C=CC(=O)Nc1ccc(F)c(Nc2nc(Nc3cnn(C)c3)nc3ccc(C(F)(F)F)cc23)c1 [Compound 231, N-(4-fluoro-3-((2-((1-methyl-1H-pyrazol-4-yl)amino)-6-(trifluoromethyl)quinazolin-4-yl)amino)phenyl)acrylamide]	4210	3900	8550	
CN(C)C/C=C/C(=O)Nc1ccc(F)c(Nc2nc(Nc3cnn(C)c3)ncc2-c2ccc(Br)cc2)c1 [Compound 304, (E)-N-(3-((5-(4-bromophenyl)-2-((1-methyl-1H-pyrazol-4-yl)amino)pyrimidin-4-yl)amino)-4-fluorophenyl)-4-(dimethylamino)but-2-enamide]	790	969	1520	
C=CC(=O)Nc1ccc(F)c(Nc2nc(Nc3cnn(C)c3)ncc2-c2ccc(C(=O)NC)cc2)c1 [Compound 64, 4-(4-((5-acrylamido-2-fluorophenyl)amino)-2-((1-methyl-1H-pyrazol-4-yl)amino)pyrimidin-5-yl)-N-methylbenzamide]		3000	7870	> 10000
C=CC(=O)Nc1ccnc(Nc2nc(Nc3cnn(C)c3)ncc2-c2ccc(C(F)(F)F)cc2)c1 [Compound 196, N-(2-((2-((1-methyl-1H-pyrazol-4-yl)amino)-5-(4-(trifluoromethyl)phenyl)pyrimidin-4-yl)amino)pyridin-4-yl)acrylamide]		8470	3210	7550
C=CC(=O)Nc1ccc(F)c(Nc2nc(Nc3nccs3)ncc2-c2ccc(C(F)(F)F)cc2)c1 [Compound 215, N-(4-fluoro-3-((2-(thiazol-2-ylamino)-5-(4-(trifluoromethyl)phenyl)pyrimidin-4-yl)amino)phenyl)acrylamide]	2270	> 10000	991	
CN(C)C/C=C/C(=O)Nc1ccc(F)c(Nc2nc(Nc3cnn(C)c3)ncc2Cl)c1 [Compound 4, (E)-N-(3-((5-chloro-2-((1-methyl-1H-pyrazol-4-yl)amino)pyrimidin-4-yl)amino)-4-fluorophenyl)-4-(dimethylamino)but-2-enamide]		1760	3000	6590
C=CC(=O)Nc1cccc(Oc2nc(Nc3cnn(CCN(C)C)c3)ncc2-c2ccc(C(F)(F)F)cc2)c1 [Compound 235, N-(3-((2-((1-(2-(dimethylamino)ethyl)-1H-pyrazol-4-yl)amino)-5-(4-(trifluoromethyl)phenyl)pyrimidin-4-yl)oxy)phenyl)acrylamide]	1070	980	619	
Cn1cc(Nc2ncc(-c3ccc(CC(F)(F)F)cc3)c(Nc3cc(NC(=O)/C=C/CF)ccc3F)n2)cn1 [Compound 303, (E)-4-fluoro-N-(4-fluoro-3-((2-((1-methyl-1H-pyrazol-4-yl)amino)-5-(4-(2,2,2-trifluoroethyl)phenyl)pyrimidin-4-yl)amino)phenyl)but-2-enamide]	20	248	111	
C=CC(=O)Nc1ccc(F)c(N(c2ccccc2)c2nc(Nc3cnn(C)c3)ncc2Cl)c1 [Compound 20, N-(3-((5-chloro-2-((1-methyl-1H-pyrazol-4-yl)amino)pyrimidin-4-yl)(phenyl)amino)-4-fluorophenyl)acrylamide]			2410	> 10000
C=CC(=O)Nc1cccc(Oc2nc(Nc3cnn(C)c3)ncc2C2=CCOCC2)c1 [Compound 192, N-(3-((5-(3,6-dihydro-2H-pyran-4-yl)-2-((1-methyl-1H-pyrazol-4-yl)amino)pyrimidin-4-yl)oxy)phenyl)acrylamide]		241	267	258
C=CC(=O)Nc1ccc(F)c(Nc2nc(Nc3cc(C)sn3)ncc2-c2ccc(C(F)(F)F)cc2)c1 [Compound 212, N-(4-fluoro-3-((2-((5-methylisothiazol-3-yl)amino)-5-(4-(trifluoromethyl)phenyl)pyrimidin-4-yl)amino)phenyl)acrylamide]	> 10000	1570	884	
C=CC(=O)Nc1ccc(F)c(Nc2nc(Nc3cnn(C)c3)ncc2C2CCN(C)C2)c1 (stereo not shown) [Compound 227, N-[4-fluoro-3-({2-[(1-methyl-1H-pyrazol-4-yl)amino]-5-(1-methylpyrrolidin-3-yl)pyrimidin-4-yl}amino)phenyl]prop-2-enamide]	6060	7090	> 10000	
C=CC(=O)Nc1ccc(F)c(Nc2nc(Nc3cnn(C)c3)ncc2-c2ccccc2C(F)(F)F)c1 [Compound 65, N-(4-fluoro-3-((2-((1-methyl-1H-pyrazol-4-yl)amino)-5-(2-(trifluoromethyl)phenyl)pyrimidin-4-yl)amino)phenyl)acrylamide]		2740	1000	1940
C=CC(=O)Nc1ccc(F)c(Nc2nc(Nc3ccccc3)ncc2-c2ccc(C(F)(F)F)cc2)c1 [Compound 121, N-(4-fluoro-3-((2-(phenylamino)-5-(4-(trifluoromethyl)phenyl)pyrimidin-4-yl)amino)phenyl)acrylamide]		> 10000	2870	1280
C=CC(=O)Nc1ccc(F)c(Nc2nc(Nc3cnn(C)c3)ncc2-c2ccccc2-c2ccccc2)c1 [Compound 263, N-(3-((5-([1,1′-biphenyl]-2-yl)-2-((1-methyl-1H-pyrazol-4-yl)amino)pyrimidin-4-yl)amino)-4-fluorophenyl)acrylamide]	6220			
C=CC(=O)Nc1ccc(F)c(Nc2nc(Nc3cc(COC)n(C)n3)ncc2Cl)c1 [Compound 21, N-(3-((5-chloro-2-((5-(methoxymethyl)-1-methyl-1H-pyrazol-3-yl)amino)pyrimidin-4-yl)amino)-4-fluorophenyl)acrylamide]			4760	> 10000
C=CC(=O)Nc1cccc2c1ccn2-c1nc(Nc2cnn(C)c2)ncc1-c1ccc(C(F)(F)F)cc1 [Compound 81, N-(1-(2-((1-methyl-1H-pyrazol-4-yl)amino)-5-(4-(trifluoromethyl)phenyl)pyrimidin-4-yl)-1H-indol-4-yl)acrylamide]		> 10000	> 10000	
C=CC(=O)Nc1ccc(F)c(Nc2nc(Nc3cnn(C)c3)ncc2-c2cccc3cc[nH]c23)c1 [Compound 265, N-(3-((5-(1H-indol-7-yl)-2-((1-methyl-1H-pyrazol-4-yl)amino)pyrimidin-4-yl)amino)-4-fluorophenyl)acrylamide]	4890			
